Conditions: 298.15 K

O=[N+]([O-])c1cccc2ccccc12
Conditions | solubility (mole fraction)
in 2-ethylhexanol | 0.0411
in 2-methyl-1-butanol | 0.0297
in 2-methyl-1-pentanol | 0.0367
in 2-pentanol | 0.0324
in 4-methyl-2-pentanol | 0.0311
in MTBE | 0.214
in acetonitrile | 0.328
in benzene | 0.423
in butyronitrile | 0.383
in cyclohexane | 0.025
in cyclooctane | 0.036
in cyclopentanol | 0.0599
in dibutyl ether | 0.0996
in diethyl ether | 0.237
in diisopropyl ether | 0.104
in ethanol | 0.0277
in ethylene glycol | 0.00463
in isobutanol | 0.0173
in isooctane | 0.0163
in isopentanol | 0.032
in isopropanol | 0.0213
in methylcyclohexane | 0.0277
in n-butanol | 0.0348
in n-decane | 0.0274
in n-decanol | 0.0666
in n-heptane | 0.0198
in n-heptanol | 0.0539
in n-hexadecane | 0.0394
in n-hexane | 0.0174
in n-hexanol | 0.0493
in n-nonane | 0.0252
in n-octane | 0.0223
in n-octanol | 0.0593
in n-pentanol | 0.0424
in n-propanol | 0.0295
in propionitrile | 0.37
in sec-butanol | 0.0331
in tert-butanol | 0.0228
in tert-butylcyclohexane | 0.0303
in toluene | 0.421
in undecane | 0.0293

From BigSolDB 2.1
